Data as given in the NIST ThermoML archive (doi:10.1021/je100315g).

Assay: xn = mol fraction of the nth substance listed
Details: 101 kPa, Liquid

CCCC[n+]1ccn(C)c1.O=S(=O)([N-]S(=O)(=O)C(F)(F)F)C(F)(F)F + C1CCOC1
mass density [kg/m3]
Details | x1 = 0.0488 | x1 = 0.1139 | x1 = 0.1771 | x1 = 0.2815 | x1 = 0.4048 | x1 = 0.4897 | x1 = 0.6329 | x1 = 0.7468 | x1 = 0.9071 | x1 = 1
293.15 K | 978.17 | 1069.71 | 1136.61 | 1218.29 | 1286.31 | 1321.41 | 1367.37 | 1395.56 | 1426.74 | 1441.63
298.15 K | 973.69 | 1065.22 | 1132.17 | 1213.74 | 1281.83 | 1317.1 | 1362.88 | 1391.06 | 1421.92 | 1436.83
303.13 K | 970.01 | 1060.65 | 1128.01 | 1209.23 | 1277.24 | 1312.14 | 1358.73 | 1386.29 | 1417.19 | 1431.98
308.15 K | 964.12 | 1055.92 | 1122.34 | 1204.63 | 1272.69 | 1307.42 | 1353.21 | 1381.45 | 1412.45 | 1427.16

CCn1cc[n+](C)c1.O=S(=O)([N-]S(=O)(=O)C(F)(F)F)C(F)(F)F + C1CCOC1
mass density [kg/m3]
Details | x1 = 0.1037 | x1 = 0.2024 | x1 = 0.3255 | x1 = 0.3841 | x1 = 0.4425 | x1 = 0.5469 | x1 = 0.6863 | x1 = 0.7697 | x1 = 0.9177 | x1 = 1
293.15 K | 1065.02 | 1178.77 | 1278.55 | 1315.59 | 1347.51 | 1395.4 | 1444.8 | 1469.16 | 1505.22 | 1522.08
298.15 K | 1061.32 | 1173.6 | 1274.14 | 1310.96 | 1342.57 | 1390.69 | 1440.1 | 1464.51 | 1500.21 | 1516.96
303.13 K | 1056.14 | 1168.46 | 1269.66 | 1306.48 | 1337.7 | 1385.78 | 1435.45 | 1459.45 | 1495.17 | 1511.85
308.15 K | 1051.2 | 1163.55 | 1264.42 | 1301.8 | 1332.56 | 1381.31 | 1430.62 | 1454.67 | 1490.13 | 1506.8
